Laboratory results published in PubChem BioAssay AID248 (DTP/NCI, 2004).
Toxic doses and inconclusive results are not listed. No stated cut-off is given here; in the data, active means T/C of 150% or more; inactive means T/C below 125%. Square brackets hold non-standard residues; d marks the D form. Peptide text beside a SMILES is read from it. * marks the point of attachment. ξ: configuration not given here. Cbz = O=C(OCc1ccccc1)*; ξL = CC(C)CC(N)C(=O)O

System: L1210 leukemia ip in BDF1 mice, survival T/C
Experiment: NCI In Vivo Anticancer Drug Screen. Data for tumor model L1210 Leukemia (intraperitoneal) in B6D2F1 (BDF1) mice
Conditions: endpoint: mean survival time, higher = longer survival
Procedure, shortened: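 Transplanted-tumor mice were given test agent; controls received vehicle only. Survival readings from the two groups were divided (treated over control).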

[1] = dose: 100.0 mg/kg/injection, schedule: Q01DX001 (ip), vehicle: saline
[2] = dose: 200.0 mg/kg/injection, schedule: Q01DX001 (ip), vehicle: saline
[3] = dose: 400.0 mg/kg/injection, schedule: Q01DX001 (ip), vehicle: saline
[4] = dose: 100.0 mg/kg/injection, schedule: Q04DX003 (ip), vehicle: saline with Tween-80
[5] = dose: 200.0 mg/kg/injection, schedule: Q04DX003 (ip), vehicle: saline with Tween-80
[6] = dose: 100.0 mg/kg/injection, schedule: Q01DX001 (ip), vehicle: carboxymethylcellulose (CMC)
[7] = dose: 200.0 mg/kg/injection, schedule: Q01DX001 (ip), vehicle: carboxymethylcellulose (CMC)
[8] = dose: 400.0 mg/kg/injection, schedule: Q01DX001 (ip), vehicle: carboxymethylcellulose (CMC)
[9] = dose: 100.0 mg/kg/injection, schedule: Q01DX009 (ip), vehicle: Klucel (hydroxypropylcellulose) (HPC)
[10] = dose: 200.0 mg/kg/injection, schedule: Q01DX009 (ip), vehicle: Klucel (hydroxypropylcellulose) (HPC)
[11] = dose: 400.0 mg/kg/injection, schedule: Q01DX009 (ip), vehicle: Klucel (hydroxypropylcellulose) (HPC)
[12] = dose: 100.0 mg/kg/injection, schedule: Q01DX001 (ip), vehicle: saline with Tween-80
[13] = dose: 100.0 mg/kg/injection, schedule: Q04DX003 (ip), vehicle: saline
[14] = dose: 200.0 mg/kg/injection, schedule: Q04DX003 (ip), vehicle: saline

Measured: T/C

COC1=C(NCCc2ccc(OC)c(OC)c2)C(=O)C(OC)=C(NCCc2ccc(OC)c(OC)c2)C1=O
inactive: [1] 109 % of control | [2] 98 % of control | [3] 96 % of control

CCCC(O)(CC)CCC
inactive: [4] 100 % of control | [5] 100 % of control

COc1ccc(NC(=O)N(O)C2(C#N)CCCCC2)cc1
inactive: [6] 98 % of control | [7] 94 % of control | [8] 88 % of control

CC(=O)OC1CCCCCCC1
inactive: [9] 97 % of control | dose: 100.0 mg/kg/injection, schedule: Q04DX003 (ip), vehicle: Klucel (hydroxypropylcellulose) (HPC) 95 % of control | [10] 100 % of control | dose: 200.0 mg/kg/injection, schedule: Q04DX003 (ip), vehicle: Klucel (hydroxypropylcellulose) (HPC) 92 % of control | [11] 94 % of control | dose: 400.0 mg/kg/injection, schedule: Q04DX003 (ip), vehicle: Klucel (hydroxypropylcellulose) (HPC) 92 % of control

O=Nc1ccc2ccccc2c1N=Nc1ccccc1C(=O)O
inactive: [9] 101 % of control | [10] 100 % of control | [11] 103 % of control

CNC(=S)N/N=C/c1ccc(OC)c(OC)c1OC
inactive: [9] 102 % of control | [10] 120 % of control | [11] 98 % of control

O=C1c2ccccc2C(=O)c2c1cccc2S(=O)(=O)O
inactive: dose: 25.0 mg/kg/injection, schedule: Q01DX001 (ip), vehicle: saline with Tween-80 105 % of control | dose: 50.0 mg/kg/injection, schedule: Q01DX001 (ip), vehicle: saline with Tween-80 103 % of control | [12] 105 % of control

OC1(c2ccccc2)c2ccccc2C(O)(c2ccccc2)c2cc(-c3ccccc3)c(-c3ccccc3)cc21 (stereo not drawn)
inactive: dose: 100.0 mg/kg/injection, schedule: Q04DX002 (ip), vehicle: Klucel (hydroxypropylcellulose) (HPC) 95 % of control | dose: 200.0 mg/kg/injection, schedule: Q04DX002 (ip), vehicle: Klucel (hydroxypropylcellulose) (HPC) 103 % of control | dose: 400.0 mg/kg/injection, schedule: Q04DX002 (ip), vehicle: Klucel (hydroxypropylcellulose) (HPC) 106 % of control

CC12CC(c3ccoc3)OC(=O)C1CCC1(C)C2C2C=CC1(O)C(=O)O2 (stereo not drawn)
inactive: [1] 104 % of control | [2] 98 % of control | [3] 104 % of control

CCOC(=O)Nc1nc(NC(=O)OCC)c(Cl)nc1Cl
inactive: dose: 25.0 mg/kg/injection, schedule: Q01DX009 (ip), vehicle: water 104 % of control | dose: 50.0 mg/kg/injection, schedule: Q01DX009 (ip), vehicle: water 100 % of control | dose: 100.0 mg/kg/injection, schedule: Q01DX009 (ip), vehicle: water 114 % of control | dose: 200.0 mg/kg/injection, schedule: Q01DX009 (ip), vehicle: water 106 % of control | dose: 400.0 mg/kg/injection, schedule: Q01DX009 (ip), vehicle: water 97 % of control

Cc1nccc2c(C)c3sc4ccccc4c3cc12
inactive: dose: 124.0 mg/kg/injection, schedule: Q01DX001 (ip), vehicle: alcohol 96 % of control | dose: 186.0 mg/kg/injection, schedule: Q01DX001 (ip), vehicle: alcohol 110 % of control | dose: 280.0 mg/kg/injection, schedule: Q01DX001 (ip), vehicle: alcohol 117 % of control | dose: 320.0 mg/kg/injection, schedule: Q01DX001 (ip), vehicle: alcohol 109 % of control

CC(=O)C(/C=N/C(=O)N(C)C)=C(/C)O
inactive: [4] 98 % of control | [5] 104 % of control | dose: 400.0 mg/kg/injection, schedule: Q04DX003 (ip), vehicle: saline with Tween-80 104 % of control

COC(=O)CNC(=O)C(CC(C)C)NC(=O)OCc1ccccc1 (stereo not drawn) (Cbz-[ξL]-Gly-OMe)
inactive: dose: 50.0 mg/kg/injection, schedule: Q01DX009 (ip), vehicle: saline 98 % of control | dose: 50.0 mg/kg/injection, schedule: Q04DX003 (ip), vehicle: saline 94 % of control | [1] 97 % of control | dose: 100.0 mg/kg/injection, schedule: Q01DX009 (ip), vehicle: saline 100 % of control | [13] 91 % of control | [2] 94 % of control | dose: 200.0 mg/kg/injection, schedule: Q01DX009 (ip), vehicle: saline 98 % of control | [14] 96 % of control

O=[N+]([O-])c1ccc(O)c(C2CCCCC2)c1
inactive: dose: 100.0 mg/kg/injection, schedule: Q01DX009 (ip), vehicle: gum acacia 92 % of control | dose: 200.0 mg/kg/injection, schedule: Q01DX009 (ip), vehicle: gum acacia 87 % of control | dose: 400.0 mg/kg/injection, schedule: Q01DX009 (ip), vehicle: gum acacia 86 % of control

O=[N+]([O-])c1cc(Cl)cc2c1-c1ccc(Cl)cc1/C2=N\O
inactive: [6] 103 % of control | [7] 103 % of control | [8] 103 % of control

O=C(/C=C/c1ccccc1)OC(C(=O)O)c1ccccc1 (stereo not drawn)
inactive: dose: 75.0 mg/kg/injection, schedule: Q01DX001 (ip), vehicle: saline 105 % of control | dose: 150.0 mg/kg/injection, schedule: Q01DX001 (ip), vehicle: saline 101 % of control | dose: 300.0 mg/kg/injection, schedule: Q01DX001 (ip), vehicle: saline 109 % of control

CC(CN(C)C)CN1c2ccccc2Sc2ccc(C(F)(F)F)cc21 (stereo not drawn)
inactive: dose: 0.78 mg/kg/injection, schedule: Q04DX003 (ip), vehicle: saline 108 % of control | dose: 1.56 mg/kg/injection, schedule: Q01DX009 (ip), vehicle: saline 111 % of control | dose: 1.56 mg/kg/injection, schedule: Q04DX003 (ip), vehicle: saline 96 % of control | dose: 3.12 mg/kg/injection, schedule: Q01DX009 (ip), vehicle: saline 104 % of control | dose: 3.12 mg/kg/injection, schedule: Q04DX003 (ip), vehicle: saline 105 % of control | dose: 6.25 mg/kg/injection, schedule: Q01DX009 (ip), vehicle: saline 105 % of control | dose: 6.25 mg/kg/injection, schedule: Q04DX003 (ip), vehicle: saline 97 % of control | dose: 12.5 mg/kg/injection, schedule: Q01DX009 (ip), vehicle: saline 109 % of control | dose: 12.5 mg/kg/injection, schedule: Q04DX003 (ip), vehicle: saline 105 % of control | dose: 25.0 mg/kg/injection, schedule: Q04DX003 (ip), vehicle: saline 109 % of control

COc1cccc(N=Cc2ccc(OC(=O)c3ccccc3)c(OC)c2)c1
inactive: [9] 91 % of control | [10] 94 % of control | [11] 92 % of control

CCCCCCCCCCCCCCSCCCCCCSCCCCCCCCCCCCCC
inactive: dose: 100.0 mg/kg/injection, schedule: Q01DX001 (ip), vehicle: Klucel (hydroxypropylcellulose) (HPC) 98 % of control | dose: 200.0 mg/kg/injection, schedule: Q01DX001 (ip), vehicle: Klucel (hydroxypropylcellulose) (HPC) 93 % of control | dose: 400.0 mg/kg/injection, schedule: Q01DX001 (ip), vehicle: Klucel (hydroxypropylcellulose) (HPC) 94 % of control

C/C=C/c1cc2c(c(=O)o1)C(=O)[C@@H](O)[C@H](C)O2
inactive: [6] 92 % of control | [7] 103 % of control | [8] 94 % of control

c1ccc2c3c(ccc2c1)OCN(C12CC4CC(CC(C4)C1)C2)C3
inactive: [13] 98 % of control | [14] 105 % of control | dose: 400.0 mg/kg/injection, schedule: Q04DX003 (ip), vehicle: saline 89 % of control

Nc1ccc(Cn2ccc(=O)[nH]c2=O)cc1
inactive: [12] 102 % of control | dose: 200.0 mg/kg/injection, schedule: Q01DX001 (ip), vehicle: saline with Tween-80 94 % of control | dose: 400.0 mg/kg/injection, schedule: Q01DX001 (ip), vehicle: saline with Tween-80 87 % of control
